# Experimental data reported in patent publication US12350341B2, “Methods for the treatment of cancer and benign lesions by ablation” (Duke University, priority 2017, dated 2025).
# Values joined by “and” are separate entries in the source; they are usually repeats but may differ in a detail not shown here. Identical values can stand only once. Like-named read-outs stand apart in the source and are kept apart here.
# Legend:
# [1] = tested on: squamous cell carcinoma tumors in the hamster cheek pouch; experiment: Injection rate- and viscosity-controlled ablation study, hamster cheek pouch model; assay type: in vivo; settings: day 7, 50 μL injected, mean over injection rates 0.1, 1.0, 10 and 100 mL/hr
# Method: Three percent ethyl cellulose (Sigma Aldrich)-ethanol solutions (weight by weight) were prepared by stirring at room temperature. Three percent was chosen as higher viscosities required a lockable needle to stay attached to the syringe at high injection rates. Two drops of blue food dye were added for every 1 mL of ethanol and ethyl cellulose-ethanol solutions to enhance contrast. 50 μL of either solution was injected at a rate of 0.1, 0.5, 1.0, 5.0, 10 or 35 mL/hr as controlled by a syringe pump (NE-300 Just Infusion Syringe Pump). Manual injections were approximately 100 mL/hr. A 1 mL syringe and 27 G needles connected with microtubing (Tygon Microtube Tubing, 0.25 mmID) were used for injections. On the outflow-end of the catheter tube a 27 G needle was snapped off the base to fit into the tubing.
# Oral Surg Oral Med Oral Pathol, 1986. 61(4): p. 368-72. […] The cheek pouches were painted until tumors of at least 100 uL in volume developed, at approximately 22 weeks.
# The average tumor volume was 195±140 μL and 50 μL of solution (either ethanol or 3% ethyl cellulose-ethanol) was injected. Solutions were injected with the syringe pump at 0.1, 1.0 or 10 mL/hr or injected manually. Tumor volume was measured before injections and at 1, 2 4 and 7 days following the injection. […] 36 total ablations were performed on 8 animals. […]
# [2] = tested on: squamous cell carcinoma tumors in the hamster cheek pouch; settings: for Tumors with complete response (no visible lesion): day 7, manual high-volume injection, 13 tumors ablated; for Tumor volume as % of the initial volume (normalized tumor volume): day 7, manual intratumoral injection, average 284±350 μL pure ethanol, 13 tumors
# Excerpt: The animal study protocol was approved by the Duke University Institutional Animal Care and Use Committee. For the manual pure ethanol ablation study, a total of 6 hamsters were used. For the rate- and viscosity-controlled study, a total of 8 hamsters were used. Tumors were induced through the topical application of dimethylbenz[a]anthracene (Sigma-Aldrich). Burns, R. A., et al., Tumor-localizing and photosensitizing properties of hematoporphyrin derivative in hamster buccal pouch carcinoma. Oral Surg Oral Med Oral Pathol, 1986. 61(4): p. 368-72. Three times a week the buccal mucosa of each cheek pouch was inverted then stretched from the mouth. An area of approximately […] was painted with a cotton swab dipped in the DMBA-mineral oil solution. The cheek pouches were painted until tumors of at least 100 uL in volume developed, at approximately 22 weeks.
# Tumor volumes were measured before the injection and daily for 7 days after. […] They were only performed if the tumor volume had increased for two consecutive days after the 7 day observation period. Volumes were calculated by measuring the longest axis and the orthogonal axis and using the following formula: V=4/3π*(Rlong^2)*(Rorth). Complete response is defined as the total absence of any evidence of a tumor or raised lesion by visual examination.
# For cell viability analysis, a one-Way ANOVA was used followed by a Tukey-HSD. For both phantom distribution volume and in vivo normalized tumor volume analysis, a non-parametric ANOVA was used (Kruskal-Wallis) followed by a non-parametric multiple comparisons test (Dunn's test). In comparing phantom distribution volume and in vivo normalized tumor volume, the Pearson's product moment correlation coefficient was calculated. All statistical analysis was performed in R. Normalized tumor volume was calculated by dividing by the volume at a given time point by the initial volume before treatment.
# [3] = tested on: HeLa human cervical carcinoma cells; experiment: In vitro viability study, trypan blue exclusion assay; assay type: cell-based; settings: 0.5 mL solution added to 0.5 mL media, 15 seconds at room temperature, PBS control 86%
# Method: Low passage HeLa human cervical carcinoma cells (ATCC) were maintained with Eagles minimum essential medium (MEM, Gibeo, Carlsbad, California) supplemented with 10% (vol.) fetal bovine serum, 1% (vol.) penicillin and 1% (vol.) streptomycin. Cells were passaged twice per week and maintained at 37° C. and 5% CO2. Cells were cultured in two 12-well plates and grown to 80% confluence. Immediately before the experiment, cell media was removed and 0.5 mL of fresh media was added to each well. Next, each well was treated with 0.5 mL of either ethanol (200 proof, Koptec, King of Prussia, PA), 3% (w/w) ethyl cellulose (USP, Sigma Aldrich, Rockville, MD) in ethanol or PBS (control), added directly to the media. […] Tapani, E., et al., Toxicity of ethanol in low concentrations. Experimental evaluation in cell culture. Acta Radiol, 1996. 37(6): p. 923-6. The media containing the treatment solution was then removed, each well was rinsed twice with 1 mL of PBS, and given 1 mL of fresh MEM media. After all wells had been treated, each well was rinsed one time with 1 mL of PBS, given 250 μL of […] trypsin (Gibed, Carlsbad, CA), and returned to the incubator for 5 minutes. […] Viability was then assessed with a trypan blue exclusion assay (Gibco, Carlsbad, CA and a Countess Automated Cell Counter, Invitrogen, Carlsbad, CA). […]
smiles,measurement,setting,value
CCO [ethanol],Normalized tumor volume,[1],79±79%
same,Tumors with complete response (no visible lesion),[2],4 of 13
same,Tumors with complete response (no visible lesion),[2]; listed as pure ethanol,4 and 4 out of 13 and 4/13
same,Tumor volume as % of the initial volume (normalized tumor volume),[2],30%
same,Tumor volume as % of the initial volume (normalized tumor volume),[2]; listed as pure ethanol,30±33%
same,Viability (live cell count/total cell count),[3],19%
